Source: patent publication US20050209446A1, “Novel 15-membered cyclic azalide, novel 16-membered cyclic diazalide derivative, and process for producing these” (Meiji Seika Kaisha Ltd., priority 2002, published 2005)
Values after ≈ are worked out from the molar mass of the structure shown.

How the values were obtained:
test bacteria = assay: Antibacterial activity test in vitro, overall statement; format: cell-based; conditions: summary of Table 1
Experimental: (§1) Antibacterial activities in vitro of the compounds of Examples 19 and 25 were measured as follows by referring to the standard method of Japanese Society of Chemotherapy (Chemotherapy, Vol. 29, p. 76-79, 1981). Antibacterial activities of miokamycin (MOM) was measured in the same manner for comparison.
For each of the solutions of the test drugs, which were dissolved in methanol so as to be 6,400 μg/ml, serial two-fold diluents with methanol were prepared. Each 200 μl of the test drug solutions prepared was placed in a laboratory dish, and the agar medium for sensitivity measurement, which was added with 5% equine sterile defibrinated blood, 15 μg/ml, β-Nicotinamide-adenine dinucleotide and 2.5 μg/ml hemin, was dispensed in 10 ml aliquots into the dish and then mixed with the solution for dilution to prepare the agar plate containing the test drug. A given amount of the liquid medium for the sensitivity measurement, which was prepared so as to contain a given amount of test bacterium was inoculated on the agar plate containing the test drug by a microplanter (Sakuma Seisakusyo, Co. Ltd.), and after the inoculation, the plate was incubated at 37° C. for about 20 hours. […]

[1] = tested on: Moraxella catarrhalis W-0506; assay: Antibacterial activity test in vitro (agar dilution MIC); format: cell-based; conditions: 37° C., about 20 hours; for Minimum inhibitory concentration (MIC): blood agar medium
Experimental: as §1
(§2) For each of the solutions of the test drugs, which were dissolved in methanol so as to be 6,400 μg/ml, serial two-fold diluents with methanol were prepared. Each 200 μl of the test drug solutions prepared was placed in a laboratory dish, and the agar medium for sensitivity measurement, which was added with 5% equine sterile defibrinated blood, 15 μg/ml, β-Nicotinamide-adenine dinucleotide and 2.5 μg/ml hemin, was dispensed in 10 ml aliquots into the dish and then mixed with the solution for dilution to prepare the agar plate containing the test drug. A given amount of the liquid medium for the sensitivity measurement, which was prepared so as to contain a given amount of test bacterium was inoculated on the agar plate containing the test drug by a microplanter (Sakuma Seisakusyo, Co. Ltd.), and after the inoculation, the plate was incubated at 37° C. for about 20 hours. After the incubation, the existence of growth of the test bacterium was visually observed, and a minimum concentration at which no growth was observed was defined as a minimum inhibitory concentration of a test drug (MIC) against each of test bacteria.

[2] = tested on: Streptococcus pneumoniae IP692; assay: as above; format: cell-based; conditions: blood agar medium, 37° C., about 20 hours
Experimental: as §1, §2

[3] = tested on: Haemophilus influenzae 9334; assay: as above; format: cell-based; conditions: blood agar medium, 37° C., about 20 hours
Experimental: as §1, §2

[4] = tested on: Streptococcus pneumoniae DP1 TypeI; assay: as above; format: cell-based; conditions: blood agar medium, 37° C., about 20 hours
Experimental: as §1, §2

[5] = tested on: Micrococcus luteus ATCC9341; assay: as above; format: cell-based; conditions: blood agar medium, 37° C., about 20 hours
Experimental: as §1, §2

[6] = tested on: Staphylococcus aureus Smith; assay: as above; format: cell-based; conditions: blood agar medium, 37° C., about 20 hours
Experimental: as §1, §2

[7] = format: in vitro ADME, mouse
Experimental: Antibacterial activities of the compound of Example 19 after treatment with mouse liver homogenate were examined as follows. Antibacterial activities of MOM were examined in the same manner for comparison. The liver was collected from a mouse, and added with a phosphate buffer to prepare 5% homogenate. A 50 μl of the test drug solution, dissolved in methanol so as to be 150 μg/ml, was added to 1.45 ml of the mouse liver homogenate, and the mixture was allowed to react at 37° C. Each portion of the reaction mixture was collected at the beginning of the reaction, and after 10, 20 and 40 minutes, and added with a given volume of an acetonitrile solution to prepare each bioassay sample for the measurement of a concentration of the test drug. […] After the incubation, a diameter of growth inhibitory circle of Micrococcus luteus ATCC9341 observed around the paper disc was measured with a digital slide calipers. […] On the basis of a calibration curve which was drawn from the concentrations and the diameters of growth inhibitory circles of the standard solutions, residual activities of the samples at the above sampling times were calculated, and compared with antibacterial activities at the beginning of the reaction.

[8] = read-out: Minimum inhibitory concentration (MIC)

MIC ([1]; W0506, blood agar medium, read-out: Minimum inhibitory concentration (MIC)) [µg/mL]	MIC [2, 8] [µg/mL]	MIC [3, 8] [µg/mL]	MIC ([4]; DP1TYPEI, read-out: Minimum inhibitory concentration (MIC)) [µg/mL]	MIC [5, 8] [µg/mL]	MIC [6, 8] [µg/mL]	Structure (SMILES)	antibacterial activities compared with MOM (test bacteria)	Minimum inhibitory concentration (MIC) [1] [µg/mL]	Minimum inhibitory concentration (MIC) [2] [µg/mL]	Minimum inhibitory concentration (MIC) [3] [µg/mL]	Minimum inhibitory concentration (MIC) [4] [µg/mL]	Minimum inhibitory concentration (MIC) [5] [µg/mL]	Minimum inhibitory concentration (MIC) [6] [µg/mL]	residual antibacterial activities after treatment with mouse liver homogenate, compared with the start of the reaction [7]
–	–	–	–	–	–	CCC(=O)O[C@@H]1CC(=O)O[C@H](C)CCN(CCCCc2ccccc2)C[C@H](O)[C@H](C)C[C@H](CC=O)[C@H](O[C@@H]2O[C@H](C)[C@@H](O[C@H]3C[C@@](C)(OC(C)=O)[C@@H](OC(=O)CC)[C@H](C)O3)[C@H](N(C)C)[C@H]2O)[C@H]1OC [Example 19]	higher antibacterial activities than MOM	0.25 (≈ 0.255 µM)	0.13 (≈ 0.133 µM)	2 (≈ 2.04 µM)	0.06 (≈ 0.0613 µM)	0.03 (≈ 0.0306 µM)	0.5 (≈ 0.511 µM)	no decrease in antibacterial activities
–	–	–	–	–	–	CCC(=O)O[C@@H]1CC(=O)O[C@H](C)CCN(CCCc2ccnc3ccccc23)C[C@H](O)[C@H](C)C[C@H](CC=O)[C@H](O[C@@H]2O[C@H](C)[C@@H](O[C@H]3C[C@@](C)(OC(C)=O)[C@@H](OC(=O)CC)[C@H](C)O3)[C@H](N(C)C)[C@H]2O)[C@H]1OC [Example 25, (−)-(3R,4S,5S,6R,8R,9R,14R)-5-[4-O-(3-O-acetyl-2,6-dideoxy-3-C-methyl-4-O-propionyl-α-L-ribo-hexopyranosyl)-3,6-dideoxy-3-dimethylamino-8-D-glucopyranosyl]-6-formylmethyl-9-hydroxy-4-methoxy-8-methyl-3-propionyloxy-11-(3-(quinolin-4-yl)propyl)-11-aza-pentadecan-14-olide]	higher antibacterial activities than MOM	0.25 (≈ 0.246 µM)	0.06 (≈ 0.059 µM)	1 (≈ 0.984 µM)	0.06 (≈ 0.059 µM)	0.03 (≈ 0.0295 µM)	0.5 (≈ 0.492 µM)	–
1 (≈ 1.11 µM)	0.25 (≈ 0.278 µM)	4 (≈ 4.45 µM)	0.25 (≈ 0.278 µM)	0.13 (≈ 0.145 µM)	1 (≈ 1.11 µM)	CCC(=O)O[C@@H]1CC(=O)O[C@H](C)C/C=C/C=C/[C@H](OC(C)=O)[C@H](C)C[C@H](CC=O)[C@H](O[C@@H]2O[C@H](C)[C@@H](O[C@H]3C[C@@](C)(OC(C)=O)[C@@H](OC(=O)CC)[C@H](C)O3)[C@H](N(C)C)[C@H]2O)[C@H]1OC [MOM, miokamycin, reference compound]	–	–	–	–	–	–	–	apparent decreases in antibacterial activities
